Source: PubChem BioAssay (NCI)
Where “and” joins values, the source holds several entries; their conditions need not be identical. Equal values may be shown once.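 These data come from cells grown in 96-well plates and exposed to compound for 48 hours at five concentrations. GI50 = concentration required for 50% inhibition of growth. TGI is the concentration that stops growth completely.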

tested on: MDA-MB-468 breast; test: NCI anticancer screen, dose series, 48 h

Structure (SMILES) | GI50 | TGI
O=C(Nc1ccc(-n2cc(-c3ccncc3)c(-c3ccc(Cl)c(O)c3)n2)cc1)c1ccc(Cl)c(Cl)c1 | 4.43 µM | > 100 µM
CN(Cc1cnc2nc(N)nc(N)c2n1)c1c(Cl)cc(C(=O)NC(CCC(=O)O)C(=O)O)cc1Br (stereo not given) | < 0.0118 µM | > 100 µM
O=C(/C=C/c1ccccn1)c1ccccc1 | 1.8 µM | 3.84 µM
COc1ccc([C@H]2c3[nH]c4ccccc4c3C[C@H]3C(=O)N(CCCCCCC(=O)NO)CC(=O)N23)cc1 | 1.43 µM | 18.5 µM
Cc1nc2sc(C(=O)Nc3cccc(Cl)c3)c(N)c2cc1C(O)c1ccccc1 (stereo not given) | 0.486 µM | 20.1 µM
COc1cc(C(=O)/C=C/c2c(C)n([O-])c3ccc(Cl)cc3[n+]2=O)cc(OC)c1OC | 3.52 µM | 19.3 µM
CNc1ccc(CSc2ccc(C)cc2)cc1 | 2.75 µM | 9.9 µM
COc1ccccc1CNCCCN1C(=O)c2ccc3c4c(ccc(c24)C1=O)C(=O)N(CCCNCCCCN)C3=O | 0.0907 µM | 0.231 µM
COc1cc2c(cc1OC)C(Sc1ccc(Cl)cc1)c1c(nc(N)c(C#N)c1N)O2 (stereo not given) | 0.794 µM | 2.7 µM
COc1cc(/C=C/C(=O)/C=C/c2ccc(-n3ccnc3)cc2)ccc1O | 2.2 µM | 5.36 µM
CC(C)(C)c1cnc(CSc2cnc(NC(=O)C3CCNCC3)s2)o1 | 0.097 µM and 0.0794 µM | 0.344 µM and 0.306 µM
CC(C)(C)OC(=O)CC(S(=O)(=O)c1ccccc1)S(=O)(=O)c1ccccc1 | 1.71 µM | 3.2 µM
CN1CCC(C(=O)Nc2n[nH]c3nnc(-c4ccccc4)cc23)CC1 | > 18.1 µM | > 25 µM
COc1ccc(C2CC(c3cccc(Nc4ccncc4)c3)=NN2c2ccccc2)cc1 (stereo not given) | 1.42 µM | 2.82 µM
O=[N+]([O-])/C(=C/C=C/c1ccccc1)c1ccccc1 | 1.25 µM | 3.09 µM
C#CCN(CCCOc1ccc(Cl)cc1Cl)CCCSC(=O)CCCCCN1/C(=C\C=C2/CCCC(/C=C/C3=[N+](CCCCCC(=O)[O-])c4ccccc4C3(C)C)=C2Cl)C(C)(C)c2ccccc21 | 1.35 µM | 3.67 µM
Cn1cc(C2=C(c3cccc([N+](=O)[O-])c3)C(=O)NC2=O)c2ccccc21 | 5.85 µM | > 25 µM
Clc1cc(Cl)cc(Nc2ccc3c(OCCCN4CCOCC4)cccc3n2)c1 | 2.08 µM | 4.33 µM
Nc1nc2c([nH]1)c1[nH]c3ccccc3c1c1[nH]c3ccccc3c21 | 2.02 µM | 4.9 µM
COc1ccc(-c2nc3sccn3c2/C=C/C(=O)c2cc(OC)c(OC)c(OC)c2)cc1 | 2.44 µM | 12.4 µM
Cc1ncc([N+](=O)[O-])n1CCOc1ccc(C(=O)/C=C/c2ccc(C(F)(F)F)cc2)cc1 | 3.92 µM | 21.8 µM
COc1cc(-c2ccc[nH]2)[nH]c1/C=C1\N=C(C)C(C(=O)NC(C)C)=C1C | 2.91 µM | 16.8 µM
COc1ccc(-c2nn(-c3cccc(Cl)c3)cc2-c2c(C#N)c(=O)n3[nH]c(-c4ccc(C)o4)nc3c2C#N)cc1 | 1.34 µM | 4.93 µM
C=C(c1ccc(C(=O)NCCCn2ccnc2)cc1)c1cc2c(cc1C)C(C)(C)CCC2(C)C | 1.04 µM | 3.24 µM
CCOC(=O)c1c(-c2ccc(Cl)cc2)c(C#N)c(=S)n(C2OC(COC(C)=O)C(OC(C)=O)C(OC(C)=O)C2OC(C)=O)c1C (stereo not given) | > 100 µM | > 100 µM
CC(=O)CCN1CC2CN=NC2(C#N)C1 (stereo not given) | > 100 µM | > 100 µM
CCCCCCC1CCCCN1C(c1ccccc1)C(O)c1ccccc1 (stereo not given) | 3.81 µM | 14.4 µM
CN(C)CC(=O)N1CCc2c([nH]c3ccccc23)C1c1cccnc1 (stereo not given) | 3.86 µM | 52.9 µM
OCCN1CCCN(CCCN2c3ccccc3Sc3ccc(C(F)(F)F)cc32)CC1 | 1.61 µM | 3.57 µM
COc1cc(C(=O)Nc2ccc(-c3nc4ccccc4[nH]3)cc2)cc(OC)c1OC | 11.9 µM | 28.4 µM
